What was measured:
Type in all cases: binding
Set-up in all cases: KINOMEscan: ABL1(F317L)-phosphorylated / KINOMEscan: ABL1(H396P)-nonphosphorylated / KINOMEscan: ABL1(H396P)-phosphorylated / KINOMEscan: ABL1(M351T)-phosphorylated / KINOMEscan: ABL1(T315I)-phosphorylated / KINOMEscan: ABL1-nonphosphorylated / KINOMEscan: ABL1-phosphorylated / KINOMEscan: ACVR2A / KINOMEscan: ACVR2B / KINOMEscan: ADCK3 / KINOMEscan: ADCK4 / KINOMEscan: AKT1 / KINOMEscan: AKT3 / KINOMEscan: ALK / KINOMEscan: ARK5 / KINOMEscan: AURKA / KINOMEscan: AURKC / KINOMEscan: BIKE / KINOMEscan: BMPR1A / KINOMEscan: BMPR1B / KINOMEscan: BMX / KINOMEscan: BRK / KINOMEscan: BRSK1 / KINOMEscan: BRSK2 / KINOMEscan: CAMK1 / KINOMEscan: CAMK1D / KINOMEscan: CAMK1G / KINOMEscan: CAMK2A / KINOMEscan: CAMK2B / KINOMEscan: AAK1 / KINOMEscan: CAMK2D / KINOMEscan: CAMK2G / KINOMEscan: ABL1(F317I)-nonphosphorylated / KINOMEscan: ABL1(F317I)-phosphorylated / KINOMEscan: ABL1(F317L)-nonphosphorylated: unit: % Ctrl
Conditions in all cases: Compound Concentration 10 µM
[1] = target: T1, panel of 442 kinases (Homo sapiens, UniProt Q13557)
T1 construct: purchased KINOMEscan
T1 sequence (Q13557 whole entry): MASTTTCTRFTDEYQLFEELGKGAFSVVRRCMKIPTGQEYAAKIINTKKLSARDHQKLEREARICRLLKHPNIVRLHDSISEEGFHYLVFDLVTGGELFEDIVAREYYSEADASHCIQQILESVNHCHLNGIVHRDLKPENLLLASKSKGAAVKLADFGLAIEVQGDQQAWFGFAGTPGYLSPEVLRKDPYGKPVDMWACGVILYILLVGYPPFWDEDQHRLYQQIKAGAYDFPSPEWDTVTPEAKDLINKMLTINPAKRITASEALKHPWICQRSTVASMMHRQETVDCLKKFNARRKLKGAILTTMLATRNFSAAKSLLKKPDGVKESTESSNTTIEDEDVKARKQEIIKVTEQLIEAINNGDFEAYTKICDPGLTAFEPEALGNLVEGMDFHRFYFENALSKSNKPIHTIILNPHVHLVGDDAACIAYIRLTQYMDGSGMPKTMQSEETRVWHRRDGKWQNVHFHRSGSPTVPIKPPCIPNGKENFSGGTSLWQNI
Text: (§1) We assessed the selectivity of members of this scaffold using the KINOMEscan methodology across a near comprehensive panel of 442 kinases [[18,27]].

[2] = target: T2, panel of 442 kinases (Homo sapiens, UniProt O15111)
T2 construct: purchased KINOMEscan
T2 sequence (O15111 1-745): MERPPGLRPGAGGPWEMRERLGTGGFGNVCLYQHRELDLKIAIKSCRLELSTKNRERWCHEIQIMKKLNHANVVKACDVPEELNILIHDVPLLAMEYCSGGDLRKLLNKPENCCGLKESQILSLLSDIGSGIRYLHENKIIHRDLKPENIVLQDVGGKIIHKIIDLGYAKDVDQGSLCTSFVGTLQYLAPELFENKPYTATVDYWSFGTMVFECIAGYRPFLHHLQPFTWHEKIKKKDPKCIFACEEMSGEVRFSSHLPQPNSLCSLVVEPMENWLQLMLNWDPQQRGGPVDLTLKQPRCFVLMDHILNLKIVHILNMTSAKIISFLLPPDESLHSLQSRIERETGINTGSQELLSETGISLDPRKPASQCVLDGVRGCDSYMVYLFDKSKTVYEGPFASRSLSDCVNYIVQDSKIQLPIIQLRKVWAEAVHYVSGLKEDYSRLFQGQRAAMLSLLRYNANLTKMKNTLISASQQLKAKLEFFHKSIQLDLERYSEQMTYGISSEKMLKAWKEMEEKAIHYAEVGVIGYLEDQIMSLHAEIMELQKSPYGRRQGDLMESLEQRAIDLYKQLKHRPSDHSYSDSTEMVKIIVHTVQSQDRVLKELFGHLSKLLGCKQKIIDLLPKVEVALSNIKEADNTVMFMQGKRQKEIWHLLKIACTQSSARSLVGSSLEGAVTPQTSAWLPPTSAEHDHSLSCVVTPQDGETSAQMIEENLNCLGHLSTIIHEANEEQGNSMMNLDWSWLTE
Text: as §1

[3] = target: T3, panel of 442 kinases (Homo sapiens, UniProt Q96GD4)
T3 construct: purchased KINOMEscan
T3 sequence (Q96GD4 whole entry): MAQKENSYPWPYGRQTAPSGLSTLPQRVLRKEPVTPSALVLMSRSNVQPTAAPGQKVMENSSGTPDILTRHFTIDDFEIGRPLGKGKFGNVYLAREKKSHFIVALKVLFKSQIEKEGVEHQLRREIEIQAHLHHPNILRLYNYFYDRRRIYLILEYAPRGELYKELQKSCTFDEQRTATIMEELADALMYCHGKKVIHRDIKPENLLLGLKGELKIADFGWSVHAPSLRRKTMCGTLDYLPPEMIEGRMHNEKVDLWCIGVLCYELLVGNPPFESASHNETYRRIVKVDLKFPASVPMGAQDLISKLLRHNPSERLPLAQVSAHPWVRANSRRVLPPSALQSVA
Text: as §1

Row | Structure (SMILES) | KINOMEscan: CAMK2D [1] | KINOMEscan: IKK-alpha [2] | KINOMEscan: AURKB [3]
1 | COc1cc(C(=O)N2CCC(N3CCN(C)CC3)CC2)ccc1Nc1ncc2c(n1)N1CCc3cccc(c31)C(=O)N2C [Compound 24] | 62 |  | 
2 | CCOc1cc(C(=O)N2CCC(N3CCN(C)CC3)CC2)ccc1Nc1ncc2c(n1)N(C1CCCC1)c1ccccc1C(=O)N2C [Compound 26] | 96 | 100 | 100
3 | COc1cc(C(=O)N2CCC(N3CCN(C)CC3)CC2)ccc1Nc1ncc2c(n1)N(C1CCCC1)c1ccccc1C(=O)N2C [Compound 25, 11-cyclopentyl-2-((2-methoxy-4-(4-(4-methylpiperazin-1-yl)piperidine-1-carbonyl)phenyl)amino)-5-methyl-5H-benzo[e]pyrimido[5,4-b][1,4]diazepin-6(11H)-one] | 100 | 100 | 60
4 | COc1cc(C(=O)N2CCC(N3CCN(C)CC3)CC2)ccc1Nc1ncc2c(n1)N(C)c1ccccc1C(=O)N2C [15 (LRRK2-IN-1)] | 28 | 100 | 38
